# Patent publication US9409922B2, “Imidazopyridine macrocycles as inhibitors of human immunodeficiency virus replication” (priority 2014, dated 2016)
# pEC50: −log10 of the molar value.
# Test system: NL-RLuc virus
# Experiment: Inhibition of HIV replication: NL-RLuc reporter virus in MT-2 cells, luciferase readout
# Format: cell-based
# Conditions: Human immunodeficiency virus 1, MT2, 120 h, MT-2 cells infected with NL-RLuc virus, 5 days of incubation, 10% FBS, at least 2 experiments
# Description: Inhibition of HIV Replication:
# A recombinant NL-RLuc proviral clone was constructed in which a section of the nef gene from NL4-3 was replaced with the Renilla Luciferase gene. This virus is fully infectious and can undergo multiple cycles of replication in cell culture. In addition, the luciferous reporter provides a simple and easy method for quantitating the extent of virus growth and consequently, the antiviral activity of test compounds. The plasmid pNLRLuc contains the proviral NL-Rluc DNA cloned into pUC 18 at the PvuII site. The NL-RLuc virus was prepared by transfection of 293T cells with the plasmid pNLRLuc. Transfections were performed using the LipofectAMINE PLUS kit from Invitrogen (Carlsbad, Calif.) according to the manufacturer and the virus generated was titered in MT-2 cells. For susceptibility analyses, the titrated virus was used to infect MT-2 cells in the presence of compound, and after 5 days of incubation, cells were processed and quantitated for virus growth by the amount of expressed luciferase. Assay media was RPMI 1640 supplemented with 10% heat inactivated fetal bovine serum (FBS), 100 units/ml penicillin G/100 units/ml streptomycin, 10 mM HEPES buffer pH 7.55 and 2 mM L-glutamine. The results from at least 2 experiments were used to calculate the EC50 values. Luciferase was quantitated using the Dual Luciferase kit from Promega (Madison, Wis.). Susceptibility of viruses to compounds was determined by incubation in the presence of serial dilutions of the compound. The 50% effective concentration (EC50) was calculated by using the exponential form of the median effect equation where (Fa)=1/[1+(ED50/drug conc.)^m](Johnson V A, Byington R T. Infectivity Assay. In Techniques in HIV Research. ed. Aldovini A, Walker B D. 71-76. New York: Stockton Press. 1990).
row,SMILES,pEC50
1,"Cc1c([C@H](OC(C)(C)C)C(=O)O)c2n3cc(nc3c1Cl)-c1cccc(c1)-c1cc(F)ccc1O[C@@H](C)CCCCOC1(C)CCN2CC1 [Example 61, (2S)-2-(tert-Butoxy)-2-[(22S)-5-chloro-17-fluoro-4,22,28-trimethyl-21,27-dioxa-1,7,34-triazahexacyclo[26.2.2.1^6,^9.1^10,^14.0^2,^7.0^15,^20]tetratriaconta-2,4,6(34),8,10(33),11,13,15(20),16,18-decaen-3-yl]acetic acid]",7.82
2,"Cc1cc2nc3cn2c(c1[C@H](OC(C)(C)C)C(=O)O)N1CCC(C)(CC1)OCCCCC[C@H](C)Oc1cc(F)cc(F)c1-c1cccc-3c1 [Example 16, (2S)-2-(tert-Butoxy)-2-[(22S)-16,18-difluoro-4,22,28-trimethyl-21,27-dioxa-1,7,34-triazahexacyclo[26.2.2.1^6,^9.1^10,^14.0^2,^7.0^15,^20]tetratriaconta-2,4,6(34),8,10(33),11,13,15(20),16,18-decaen-3-yl]acetic acid]",8.40
3,"Cc1c([C@H](OC(C)(C)C)C(=O)O)c2n3cc(nc3c1CO)-c1cccc(c1)-c1c(ccc(F)c1F)O[C@@H](C)CCCCOC1(C)CCN2CC1 [Example 54, (2S)-2-(tert-Butoxy)-2-[(22S)-16,17-difluoro-5-(hydroxymethyl)-4,22,28-trimethyl-21,27-dioxa-1,7,34-triazahexacyclo[26.2.2.1^6,^9.1^10,^14.0^2,^7.0^15,^20]tetratriaconta-2,4,6(34),8,10(33),11,13,15(20),16,18-decaen-3-yl]acetic acid]",8.40
4,"Cc1cc2c(cc1F)-c1cccc(c1)-c1cn3c(c([C@H](OC(C)(C)C)C(=O)O)c(C)cc3n1)N1CCC(C)(CC1)OCCCC[C@H](C)O2 [Example 20, (2S)-2-(tert-Butoxy)-2-[(22S)-17-fluoro-4,18,22,28-tetramethyl-21,27-dioxa-1,7,34-triazahexacyclo[26.2.2.1^6,^9.1^10,^14.0^2,^7.0^15,^20]tetratriaconta-2,4,6(34),8,10(33),11,13,15(20),16,18-decaen-3-yl]acetic acid]",7.96
5,"Cc1cc2c(cc1F)-c1cccc(c1)-c1cn3c(c([C@H](OC(C)(C)C)C(=O)O)c(C)c(NS(C)(=O)=O)c3n1)N1CCC(C)(CC1)OCCCC[C@H](C)O2 [Example 31, (2S)-2-(tert-Butoxy)-2-[(22S)-17-fluoro-5-methanesulfonamido-4,18,22,28-tetramethyl-21,27-dioxa-1,7,34-triazahexacyclo[26.2.2.1^6,^9.1^10,^14.0^2,^7.0^15,^20]tetratriaconta-2,4,6(34),8,10(33),11,13,15(20),16,18-decaen-3-yl]acetic acid]",7.72
6,"CC(=O)c1c(C)c([C@H](OC(C)(C)C)C(=O)O)c2n3cc(nc13)-c1cccc(c1)-c1cc(F)ccc1O[C@@H](C)CCCCOC1(C)CCN2CC1 [Example 64, (2S)-2-[(22S)-5-Acetyl-17-fluoro-4,22,28-trimethyl-21,27-dioxa-1,7,34-triazahexacyclo[26.2.2.1^6,^9.1^10,^14.0^2,^7.0^15,^20]tetratriaconta-2,4,6(34),8,10(33),11,13,15(20),16,18-decaen-3-yl]-2-(tert-butoxy)acetic acid]",8.22
7,"Cc1cc2c(cc1C)-c1cccc(c1)-c1cn3c(c([C@H](OC(C)(C)C)C(=O)O)c(C)cc3n1)N1CCC(C)(CC1)OCCCC[C@H](C)O2 [Example 19, (2S)-2-(tert-Butoxy)-2-[(22S)-4,17,18,22,28-pentamethyl-21,27-dioxa-1,7,34-triazahexacyclo[26.2.2.1^6,^9.1^10,^14.0^2,^7.0^15,^20]tetratriaconta-2,4,6(34),8,10(33),11,13,15(20),16,18-decaen-3-yl]acetic acid]",7.82
8,"Cc1cc2c(cc1F)-c1cccc(c1)-c1nc3cc(C)c([C@H](OC(C)(C)C)C(=O)O)c(n3c1Cl)N1CCC(C)(CC1)OCCCC[C@H](C)O2 [Example 24, (2S)-2-(tert-Butoxy)-2-[(22S)-8-chloro-17-fluoro-4,18,22,28-tetramethyl-21,27-dioxa-1,7,34-triazahexacyclo[26.2.2.1^6,^9.1^10,^14.0^2,^7.0^15,^20]tetratriaconta-2,4,6(34),8,10(33),11,13,15(20),16,18-decaen-3-yl]acetic acid]",7.70
9,"CCc1c(C)c([C@H](OC(C)(C)C)C(=O)O)c2n3cc(nc13)-c1cccc(c1)-c1cc(F)c(F)cc1O[C@@H](C)CCCCOC1(C)CCN2CC1 [Example 57, (2S)-2-(tert-Butoxy)-2-[(22S)-5-ethyl-17,18-difluoro-4,22,28-trimethyl-21,27-dioxa-1,7,34-triazahexacyclo[26.2.2.1^6,^9.1^10,^14.0^2,^7.0^15,^20]tetratriaconta-2,4,6(34),8,10(33),11,13,15(20),16,18-decaen-3-yl]acetic acid]",7.89
10,"Cc1c([C@H](OC(C)(C)C)C(=O)O)c2n3cc(nc3c1Br)-c1cccc(c1)-c1cc(F)ccc1O[C@@H](C)CCCCOC1(C)CCN2CC1 [Example 32, (2S)-2-[(22S)-5-Bromo-17-fluoro-4,22,28-trimethyl-21,27-dioxa-1,7,34-triazahexacyclo[26.2.2.1^6,^9.1^10,^14.0^2,^7.0^15,^20]tetratriaconta-2,4,6(34),8,10(33),11,13,15(20),16,18-decaen-3-yl]-2-(tert-butoxy)acetic acid]",8.00
11,"C=C(C)c1c(C)c([C@H](OC(C)(C)C)C(=O)O)c2n3cc(nc13)-c1cccc(c1)-c1cc(F)ccc1O[C@@H](C)CCCCOC1(C)CCN2CC1 [Example 48, (2S)-2-(tert-Butoxy)-2-[(22S)-17-fluoro-4,22,28-trimethyl-5-(prop-1-en-2-yl)-21,27-dioxa-1,7,34-triazahexacyclo[26.2.2.1^6,^9.1^10,^14.0^2,^7.0^15,^20]tetratriaconta-2,4,6(34),8,10(33),11,13,15(20),16,18-decaen-3-yl]acetic acid]",7.62
12,"Cc1c([C@H](OC(C)(C)C)C(=O)O)c2n3cc(nc3c1C)-c1cccc(c1)-c1cc(F)ccc1O[C@@H](C)CCCCOC1(C)CCN2CC1 [Example 33, (2S)-2-(tert-Butoxy)-2-[(22S)-17-fluoro-4,5,22,28-tetramethyl-21,27-dioxa-1,7,34-triazahexacyclo[26.2.2.1^6,^9.1^10,^14.0^2,^7.0^15,^20]tetratriaconta-2,4,6(34),8,10(33),11,13,15(20),16,18-decaen-3-yl]acetic acid]",7.60
13,"Cc1cc2nc3cn2c(c1[C@H](OC(C)(C)C)C(=O)O)N1CCC(C)(CC1)OC/C=C/C[C@H](C)Oc1cc(F)c(F)cc1-c1cccc-3c1 [Example 11, (2S)-2-(tert-Butoxy)-2-[(22S)-17,18-difluoro-4,22,28-trimethyl-21,27-dioxa-1,7,34-triazahexacyclo[26.2.2.1^6,^9.1^10,^14.0^2,^7.0^15,^20]tetratriaconta-2,4,6(34),8,10(33),11,13,15(20),16,18,24-undecaen-3-yl]acetic acid]",7.92
14,"Cc1cc2c(cc1C)-c1cccc(c1)-c1nc3cc(C)c([C@H](OC(C)(C)C)C(=O)O)c(n3c1Cl)N1CCC(C)(CC1)OCCCC[C@H](C)O2 [Example 25, (2S)-2-(tert-Butoxy)-2-[(22S)-8-chloro-4,17,18,22,28-pentamethyl-21,27-dioxa-1,7,34-triazahexacyclo[26.2.2.1^6,^9.1^10,^14.0^2,^7.0^15,^20]tetratriaconta-2,4,6(34),8,10(33),11,13,15(20),16,18-decaen-3-yl]acetic acid]",7.52
15,"Cc1cc2nc3cn2c(c1[C@H](OC(C)(C)C)C(=O)O)N1CCC(C)(CC1)OCCCC[C@H](C)Oc1ccc(F)c(F)c1-c1cccc-3c1 [Example 46, (2S)-2-(tert-butoxy)-2-[(22S)-16,17-difluoro-4,22,28-trimethyl-21,27-dioxa-1,7,34-triazahexacyclo[26.2.2.1^6,^9.1^10,^14.0^2,^7.0^15,^20]tetratriaconta-2,4,6(34),8,10(33),11,13,15(20),16,18-decaen-3-yl]acetic acid]",8.40
16,"Cc1c([C@H](OC(C)(C)C)C(=O)O)c2n3cc(nc3c1C)-c1cccc(c1)-c1cc(F)c(F)cc1O[C@@H](C)CCCCOC1(C)CCN2CC1 [Example 41, (2S)-2-(tert-Butoxy)-2-[(22S)-17,18-difluoro-4,5,22,28-tetramethyl-21,27-dioxa-1,7,34-triazahexacyclo[26.2.2.1^6,^9.1^10,^14.0^2,^7.0^15,^20]tetratriaconta-2,4,6(34),8,10(33),11,13,15(20),16,18-decaen-3-yl]acetic acid]",7.89

# Same assay, conditions: MT-2 cells infected with NL-RLuc virus, 5 days of incubation, 10% FBS, at least 2 experiments
row,SMILES,pEC50
1,"Cc1c([C@H](OC(C)(C)C)C(=O)O)c2n3cc(nc3c1C(C)O)-c1cccc(c1)-c1c(ccc(F)c1F)O[C@@H](C)CCCCOC1(C)CCN2CC1 (stereo partly drawn) [Example 49, (2S)-2-(tert-Butoxy)-2-[(22S)-16,17-difluoro-5-(1-hydroxyethyl)-4,22,28-trimethyl-21,27-dioxa-1,7,34-triazahexacyclo[26.2.2.1^6,^9.1^10,^14.0^2,^7.0^15,^20]tetratriaconta-2,4,6(34),8,10(33),11,13,15(20),16,18-decaen-3-yl]acetic acid]",8.70
